In patent US20260184748A1, “COMPOSITIONS COMPRISING OCTADECANEUROPEPTIDES (ODN) AND SYNTHETIC DERIVATIVES THEREOF AND METHODS OF USE FOR MODULATION OF FOOD INTAKE, OBESITY, BODY WEIGHT, NAUSEA, AND EMESIS” (The Trustees of the University of Pennsylvania, priority 2022, published 2026):
pEC50: −log10 of the molar value. Where no end group is shown, it is not given here.

Experiments:
PTGIR = PTGIR (Homo sapiens, UniProt P43119); test: Arrestin agonist mode; type: cell-based; conditions: read-out: RC50 (the source's name)
Chain of PTGIR (P43119 whole entry): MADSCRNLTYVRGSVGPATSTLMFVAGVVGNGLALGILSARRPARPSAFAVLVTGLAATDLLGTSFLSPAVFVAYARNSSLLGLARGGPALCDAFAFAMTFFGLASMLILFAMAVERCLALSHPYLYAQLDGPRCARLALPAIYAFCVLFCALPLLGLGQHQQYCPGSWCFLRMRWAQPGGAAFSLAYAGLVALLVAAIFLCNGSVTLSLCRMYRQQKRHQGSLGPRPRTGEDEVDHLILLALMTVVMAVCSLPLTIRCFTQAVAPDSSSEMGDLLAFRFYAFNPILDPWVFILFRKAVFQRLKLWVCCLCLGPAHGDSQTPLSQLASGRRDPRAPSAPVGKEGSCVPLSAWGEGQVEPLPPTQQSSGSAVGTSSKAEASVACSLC

P2RY12 = P2RY12 (Homo sapiens, UniProt Q9H244); test: Arrestin agonist mode; type: cell-based; conditions: read-out: RC50 (the source's name)
GPR109B = GPR109B (Homo sapiens, UniProt P49019); test: Arrestin agonist mode; type: cell-based; conditions: read-out: RC50 (the source's name)
Chain of GPR109B (P49019 whole entry): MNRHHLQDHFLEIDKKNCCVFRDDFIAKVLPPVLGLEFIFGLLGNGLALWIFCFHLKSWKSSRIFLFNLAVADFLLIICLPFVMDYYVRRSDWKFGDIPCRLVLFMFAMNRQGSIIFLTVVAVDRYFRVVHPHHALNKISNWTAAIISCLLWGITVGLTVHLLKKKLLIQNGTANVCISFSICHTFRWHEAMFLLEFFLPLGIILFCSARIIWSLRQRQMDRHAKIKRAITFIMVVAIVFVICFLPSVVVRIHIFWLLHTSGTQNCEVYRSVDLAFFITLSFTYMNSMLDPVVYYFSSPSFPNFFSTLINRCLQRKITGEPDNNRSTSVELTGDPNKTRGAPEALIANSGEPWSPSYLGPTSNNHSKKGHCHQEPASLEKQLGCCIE

OXER1 = OXER1 (Homo sapiens, UniProt Q8TDS5); test: Arrestin agonist mode; type: cell-based; conditions: read-out: RC50 (the source's name)
Chain of OXER1 (Q8TDS5 whole entry): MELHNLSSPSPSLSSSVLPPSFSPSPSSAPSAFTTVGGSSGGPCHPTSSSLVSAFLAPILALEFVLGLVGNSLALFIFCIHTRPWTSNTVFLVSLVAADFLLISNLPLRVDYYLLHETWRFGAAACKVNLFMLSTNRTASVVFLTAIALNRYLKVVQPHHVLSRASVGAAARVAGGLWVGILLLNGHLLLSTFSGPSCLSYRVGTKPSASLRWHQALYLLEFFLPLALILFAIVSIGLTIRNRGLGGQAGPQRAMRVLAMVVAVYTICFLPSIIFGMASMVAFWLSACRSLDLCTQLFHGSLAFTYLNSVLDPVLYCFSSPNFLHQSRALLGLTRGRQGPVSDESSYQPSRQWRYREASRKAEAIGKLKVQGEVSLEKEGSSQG

TBXA2R = TBXA2R (Homo sapiens, UniProt P21731); test: Arrestin agonist mode; type: cell-based; conditions: read-out: RC50 (the source's name)
Chain of TBXA2R (P21731 whole entry): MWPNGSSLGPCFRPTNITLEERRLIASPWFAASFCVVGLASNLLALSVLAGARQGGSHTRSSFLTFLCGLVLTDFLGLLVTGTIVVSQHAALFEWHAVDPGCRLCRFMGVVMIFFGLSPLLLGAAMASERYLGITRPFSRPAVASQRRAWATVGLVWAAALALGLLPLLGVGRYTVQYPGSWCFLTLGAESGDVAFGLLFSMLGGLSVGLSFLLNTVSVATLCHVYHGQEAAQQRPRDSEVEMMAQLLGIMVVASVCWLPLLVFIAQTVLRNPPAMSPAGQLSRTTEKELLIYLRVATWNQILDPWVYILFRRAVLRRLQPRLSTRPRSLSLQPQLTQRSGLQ

KISS1R = KISS1R (Homo sapiens, UniProt Q969F8); test: Arrestin agonist mode; type: cell-based; conditions: read-out: RC50 (the source's name)
Chain of KISS1R (Q969F8 whole entry): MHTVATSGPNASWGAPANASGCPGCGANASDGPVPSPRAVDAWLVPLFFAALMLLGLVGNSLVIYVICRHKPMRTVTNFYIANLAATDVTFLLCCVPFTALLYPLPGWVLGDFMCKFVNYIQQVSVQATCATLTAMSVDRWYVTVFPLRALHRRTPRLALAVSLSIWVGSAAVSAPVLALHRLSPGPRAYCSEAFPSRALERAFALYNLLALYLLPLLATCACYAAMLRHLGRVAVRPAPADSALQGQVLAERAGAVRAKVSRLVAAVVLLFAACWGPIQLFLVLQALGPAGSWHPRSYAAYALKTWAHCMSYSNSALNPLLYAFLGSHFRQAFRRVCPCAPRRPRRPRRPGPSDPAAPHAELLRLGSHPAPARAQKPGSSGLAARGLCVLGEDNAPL

[1] = rat, in vivo, ip
MLNR = MLNR (Homo sapiens, UniProt O43193); test: Arrestin agonist mode; type: cell-based; conditions: read-out: RC50 (the source's name)
GPR119 = GPR119 (Homo sapiens, UniProt Q8TDV5); test: Arrestin agonist mode; type: cell-based; conditions: read-out: RC50 (the source's name)
Chain of GPR119 (Q8TDV5 whole entry): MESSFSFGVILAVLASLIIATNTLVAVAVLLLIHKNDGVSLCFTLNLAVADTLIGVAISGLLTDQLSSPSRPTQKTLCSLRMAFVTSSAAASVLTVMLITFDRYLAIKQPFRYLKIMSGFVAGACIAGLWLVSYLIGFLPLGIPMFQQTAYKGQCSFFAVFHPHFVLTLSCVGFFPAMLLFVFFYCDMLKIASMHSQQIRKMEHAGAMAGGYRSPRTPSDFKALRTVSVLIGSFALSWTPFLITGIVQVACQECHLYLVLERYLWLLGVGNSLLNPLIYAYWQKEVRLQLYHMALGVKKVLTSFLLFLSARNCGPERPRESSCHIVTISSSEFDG

PTAFR = PTAFR (Homo sapiens, UniProt P25105); test: Arrestin agonist mode; type: cell-based; conditions: read-out: RC50 (the source's name)
Chain of PTAFR (P25105 whole entry): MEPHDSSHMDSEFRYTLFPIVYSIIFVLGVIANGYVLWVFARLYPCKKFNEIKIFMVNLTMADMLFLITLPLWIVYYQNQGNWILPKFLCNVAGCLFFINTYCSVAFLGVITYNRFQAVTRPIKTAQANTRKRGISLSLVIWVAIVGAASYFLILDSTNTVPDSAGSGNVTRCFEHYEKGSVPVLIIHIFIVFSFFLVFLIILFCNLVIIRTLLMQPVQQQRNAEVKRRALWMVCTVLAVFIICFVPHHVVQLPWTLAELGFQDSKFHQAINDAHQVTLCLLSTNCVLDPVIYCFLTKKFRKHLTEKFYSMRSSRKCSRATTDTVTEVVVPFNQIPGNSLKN

CRTH2 = CRTH2 (Homo sapiens, UniProt Q9Y5Y4); test: Arrestin agonist mode; type: cell-based; conditions: read-out: RC50 (the source's name)
Chain of CRTH2 (Q9Y5Y4 whole entry): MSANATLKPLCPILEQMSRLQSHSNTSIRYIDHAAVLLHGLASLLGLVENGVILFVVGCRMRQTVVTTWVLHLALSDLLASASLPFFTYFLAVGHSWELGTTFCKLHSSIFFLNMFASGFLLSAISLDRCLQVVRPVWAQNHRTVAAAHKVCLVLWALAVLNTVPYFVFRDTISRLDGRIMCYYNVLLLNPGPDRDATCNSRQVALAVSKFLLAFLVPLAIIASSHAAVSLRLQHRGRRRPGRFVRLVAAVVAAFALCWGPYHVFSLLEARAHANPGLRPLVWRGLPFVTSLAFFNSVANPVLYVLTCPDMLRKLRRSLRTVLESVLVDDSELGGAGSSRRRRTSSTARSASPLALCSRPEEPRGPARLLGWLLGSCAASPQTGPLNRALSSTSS

P2RY6 = P2RY6 (Homo sapiens, UniProt Q15077); test: Arrestin agonist mode; type: cell-based; conditions: read-out: RC50 (the source's name)
Chain of P2RY6 (Q15077 whole entry): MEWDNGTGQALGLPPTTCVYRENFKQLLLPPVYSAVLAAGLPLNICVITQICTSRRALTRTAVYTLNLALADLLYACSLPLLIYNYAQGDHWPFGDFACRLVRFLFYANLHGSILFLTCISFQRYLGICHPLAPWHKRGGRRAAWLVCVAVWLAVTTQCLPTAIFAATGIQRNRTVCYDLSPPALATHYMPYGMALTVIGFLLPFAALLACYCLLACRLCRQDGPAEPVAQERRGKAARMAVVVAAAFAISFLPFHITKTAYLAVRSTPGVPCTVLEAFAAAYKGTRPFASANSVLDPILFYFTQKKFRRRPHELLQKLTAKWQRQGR

P2RY2 = P2RY2 (Homo sapiens, UniProt P41231); test: Arrestin agonist mode; type: cell-based; conditions: read-out: RC50 (the source's name)
P2RY4 = P2RY4 (Homo sapiens, UniProt P51582); test: Arrestin agonist mode; type: cell-based; conditions: read-out: RC50 (the source's name)
Chain of P2RY4 (P51582 whole entry): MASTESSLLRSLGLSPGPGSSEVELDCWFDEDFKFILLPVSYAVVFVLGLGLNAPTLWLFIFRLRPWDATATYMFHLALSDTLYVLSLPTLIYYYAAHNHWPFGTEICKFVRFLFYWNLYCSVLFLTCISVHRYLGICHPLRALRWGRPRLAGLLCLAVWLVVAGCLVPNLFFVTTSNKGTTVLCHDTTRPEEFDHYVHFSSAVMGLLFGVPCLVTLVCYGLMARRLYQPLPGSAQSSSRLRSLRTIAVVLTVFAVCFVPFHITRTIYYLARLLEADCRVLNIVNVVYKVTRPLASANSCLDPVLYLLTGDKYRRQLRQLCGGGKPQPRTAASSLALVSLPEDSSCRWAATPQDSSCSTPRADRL

CCR2 = CCR2 (Homo sapiens, UniProt P41597); test: Arrestin agonist mode; type: cell-based; conditions: read-out: RC50 (the source's name)
Chain of CCR2 (P41597 whole entry): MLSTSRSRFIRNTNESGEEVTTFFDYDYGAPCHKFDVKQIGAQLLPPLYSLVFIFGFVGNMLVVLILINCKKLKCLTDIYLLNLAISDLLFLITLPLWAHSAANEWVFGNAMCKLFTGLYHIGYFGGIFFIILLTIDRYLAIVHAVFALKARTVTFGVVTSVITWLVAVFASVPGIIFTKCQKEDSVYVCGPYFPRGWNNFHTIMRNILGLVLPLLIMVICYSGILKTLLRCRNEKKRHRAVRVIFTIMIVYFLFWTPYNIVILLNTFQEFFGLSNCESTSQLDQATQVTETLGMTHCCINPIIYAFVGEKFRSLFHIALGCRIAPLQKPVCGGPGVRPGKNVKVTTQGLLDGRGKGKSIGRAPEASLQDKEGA

CCR1 = biological target: T1, CCR1 (Homo sapiens, UniProt P32246); test: Arrestin agonist mode; type: cell-based; conditions: read-out: RC50 (the source's name)
T1 sequence (P32246 1-355): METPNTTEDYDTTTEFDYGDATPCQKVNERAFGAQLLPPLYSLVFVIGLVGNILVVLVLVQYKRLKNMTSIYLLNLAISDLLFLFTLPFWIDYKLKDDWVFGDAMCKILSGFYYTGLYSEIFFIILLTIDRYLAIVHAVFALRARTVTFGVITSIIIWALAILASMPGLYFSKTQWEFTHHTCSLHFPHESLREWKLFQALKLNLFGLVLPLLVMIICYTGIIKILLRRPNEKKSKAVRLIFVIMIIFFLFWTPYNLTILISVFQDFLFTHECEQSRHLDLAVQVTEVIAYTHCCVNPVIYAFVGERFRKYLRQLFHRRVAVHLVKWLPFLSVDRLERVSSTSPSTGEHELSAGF

CCR5 = CCR5 (Homo sapiens, UniProt P51681); test: Arrestin agonist mode; type: cell-based; conditions: read-out: RC50 (the source's name)
Chain of CCR5 (P51681 whole entry): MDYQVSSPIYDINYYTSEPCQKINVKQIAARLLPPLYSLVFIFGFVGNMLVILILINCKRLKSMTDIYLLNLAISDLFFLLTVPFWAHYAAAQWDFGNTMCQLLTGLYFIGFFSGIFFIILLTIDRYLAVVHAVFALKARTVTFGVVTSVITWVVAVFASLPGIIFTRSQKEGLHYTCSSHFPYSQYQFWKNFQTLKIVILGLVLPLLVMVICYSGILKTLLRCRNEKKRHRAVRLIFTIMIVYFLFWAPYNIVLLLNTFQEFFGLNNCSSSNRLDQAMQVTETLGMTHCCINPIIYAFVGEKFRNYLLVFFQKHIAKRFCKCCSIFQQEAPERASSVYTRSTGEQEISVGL

CCR3 = biological target: T2, CCR3 (Homo sapiens, UniProt P51677); test: Arrestin agonist mode; type: cell-based; conditions: read-out: RC50 (the source's name)
T2 sequence (P51677 1-355): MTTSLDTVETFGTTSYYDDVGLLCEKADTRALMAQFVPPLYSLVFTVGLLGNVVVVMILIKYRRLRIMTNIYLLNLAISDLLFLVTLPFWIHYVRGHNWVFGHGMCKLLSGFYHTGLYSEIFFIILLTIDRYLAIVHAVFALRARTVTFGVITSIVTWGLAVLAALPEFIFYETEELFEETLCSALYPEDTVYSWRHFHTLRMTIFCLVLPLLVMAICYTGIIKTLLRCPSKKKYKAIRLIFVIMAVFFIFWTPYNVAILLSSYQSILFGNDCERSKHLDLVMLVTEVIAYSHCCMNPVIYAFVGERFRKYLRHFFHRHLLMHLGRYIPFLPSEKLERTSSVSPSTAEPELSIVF

CCR7 = biological target: T3, CCR7 (Homo sapiens, UniProt P32248); test: Arrestin agonist mode; type: cell-based; conditions: read-out: RC50 (the source's name)
T3 sequence (P32248 25-378): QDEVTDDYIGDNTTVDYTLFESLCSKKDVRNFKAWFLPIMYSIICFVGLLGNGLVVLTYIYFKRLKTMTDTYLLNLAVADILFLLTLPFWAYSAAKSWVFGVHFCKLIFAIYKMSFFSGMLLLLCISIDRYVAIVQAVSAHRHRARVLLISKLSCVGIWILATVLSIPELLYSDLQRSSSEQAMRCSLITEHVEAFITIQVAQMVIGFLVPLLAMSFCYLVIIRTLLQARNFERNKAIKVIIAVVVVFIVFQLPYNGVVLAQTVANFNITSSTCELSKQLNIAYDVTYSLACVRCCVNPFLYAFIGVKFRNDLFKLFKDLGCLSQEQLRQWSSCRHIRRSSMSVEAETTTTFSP

CCR6 = biological target: T4, CCR6 (Homo sapiens, UniProt P51684); test: Arrestin agonist mode; type: cell-based; conditions: read-out: RC50 (the source's name)
T4 sequence (P51684 1-374): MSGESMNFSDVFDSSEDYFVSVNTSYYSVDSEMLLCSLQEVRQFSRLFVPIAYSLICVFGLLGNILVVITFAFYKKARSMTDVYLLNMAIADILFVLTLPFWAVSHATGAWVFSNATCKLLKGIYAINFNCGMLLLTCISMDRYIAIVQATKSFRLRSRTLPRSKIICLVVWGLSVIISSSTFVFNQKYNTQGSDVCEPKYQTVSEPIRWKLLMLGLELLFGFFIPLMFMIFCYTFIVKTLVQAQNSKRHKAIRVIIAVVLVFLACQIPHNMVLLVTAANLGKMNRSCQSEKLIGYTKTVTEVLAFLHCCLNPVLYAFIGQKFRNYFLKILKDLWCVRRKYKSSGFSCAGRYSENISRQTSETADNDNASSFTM

CX3CR1 = biological target: T5, CX3CR1 (Homo sapiens, UniProt P49238); test: Arrestin agonist mode; type: cell-based; conditions: read-out: RC50 (the source's name)
T5 sequence (P49238 1-355): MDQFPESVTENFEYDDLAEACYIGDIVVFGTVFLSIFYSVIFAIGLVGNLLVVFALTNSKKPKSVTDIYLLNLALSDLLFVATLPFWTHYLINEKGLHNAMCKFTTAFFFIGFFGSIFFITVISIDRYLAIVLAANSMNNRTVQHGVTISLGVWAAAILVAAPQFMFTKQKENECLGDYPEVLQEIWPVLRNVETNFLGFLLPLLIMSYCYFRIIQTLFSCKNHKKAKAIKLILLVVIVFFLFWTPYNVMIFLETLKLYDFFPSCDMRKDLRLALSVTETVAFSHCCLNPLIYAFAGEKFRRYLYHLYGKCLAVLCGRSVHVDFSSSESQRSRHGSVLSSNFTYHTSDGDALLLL

NPSR1B = NPSR1B (Homo sapiens, UniProt Q6W5P4); test: Arrestin agonist mode; type: cell-based; conditions: read-out: RC50 (the source's name)
Chain of NPSR1B (Q6W5P4 1-377 isoform Q6W5P4-4): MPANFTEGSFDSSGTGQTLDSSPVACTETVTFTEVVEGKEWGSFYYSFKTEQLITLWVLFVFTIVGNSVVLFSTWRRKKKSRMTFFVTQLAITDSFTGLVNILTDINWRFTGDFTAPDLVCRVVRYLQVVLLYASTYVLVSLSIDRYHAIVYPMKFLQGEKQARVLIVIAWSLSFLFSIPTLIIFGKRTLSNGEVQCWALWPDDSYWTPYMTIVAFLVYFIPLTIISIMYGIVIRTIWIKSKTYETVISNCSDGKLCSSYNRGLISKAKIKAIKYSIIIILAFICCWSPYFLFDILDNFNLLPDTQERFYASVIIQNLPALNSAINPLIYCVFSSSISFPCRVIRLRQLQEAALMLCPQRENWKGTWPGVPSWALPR

[2] = 24 h body weight change in rats; type: in vivo, rat; conditions: 4th ventricle injection
DBI protein expression = test: Hindbrain DBI immunohistochemistry and quantification; type: in vivo, rat; conditions: 4th ventricle Ex-4 0.3 μg/2 μL in 24 h fasted HFD-maintained rats
Protocol: Rats maintained on chow or HFD were either ad libitum fed or fasted for 24 h. […] Rats were deeply anesthetized with KAX and transcardially perfused with 0.1 M phosphate-buffered saline (PBS; pH 7.4) followed by 4% paraformaldehyde in 0.1 M PBS on ice. Brains were removed from the crania and post-fixed in 4% paraformaldehyde for 24 h, then stored in 20% sucrose in 0.1 M PBS at 4° C. until sunk. Coronal dorsal vagal complex (DVC) sections (30 μm) were sliced and collected directly onto slides (12-550-15; Superfrost Plus, Fisher Scientific) using a cryostat and stored at −80° C. until the start of immunohistochemistry (IHC). Briefly, tissue was washed with 0.1 M PBS 3 times for 8 minutes and then incubated in blocking solution [5% normal donkey serum (Jackson Immunoresearch) in PBST; PBS with 0.3% triton X] followed by overnight incubation in rabbit anti-DBI primary antibody (1:500; ab231910, Abcam) and chicken anti-vimentin primary antibody (1:2000; ab24525, Abcam) at 4° C. […] Slides were visualized using fluorescence microscopy (BZ-X810, Keyence). Images analysis to quantify the fluorescent intensity of DBI protein staining in the nucleus solitary tractus (NTS) and area postrema (AP) as well as the % colocalization of DBI and vimentin staining in the AP, subpostrema, and 4th ventricle boarder was done using the HALO@FISH-IF and Area Quantification FL modules.

Compound: CC#CCC(C)[C@H](O)/C=C/[C@@H]1[C@H]2c3cccc(CCCC(=O)O)c3O[C@H]2C[C@H]1O (mixture of isomers) [Beraprost]
- pEC50 (PTGIR): 6.66

Compound: CSc1nc(N)c2ncn([C@@H]3O[C@H](COP(=O)(O)OP(=O)(O)O)[C@@H](O)[C@H]3O)c2n1 [2-methylthio-ADP]
- pEC50 (P2RY12): 8.57

Compound: CCCCCC(O)CC(=O)O (stereo not shown) [3-Hydroxyoctanoic Acid]
- pEC50 (GPR109B): 3.43

Compound: CCCCC/C=C\C/C=C\C/C=C\C=C\C(=O)CCCC(=O)O [5-OxoETE]
- pEC50 (OXER1): 5.94

Compound: O=C(O)CCC/C=C\C[C@@H]1[C@@H](/C=C/[C@@H](O)COc2ccc(I)cc2)[C@H]2CC[C@@H]1O2 [I-BOP]
- pEC50 (TBXA2R): 7.67

Compound: CC(C)C[C@H](NC(=O)CNC(=O)[C@H](Cc1ccccc1)NC(=O)[C@H](CO)NC(=O)[C@H](CC(N)=O)NC(=O)[C@H](Cc1c[nH]c2ccccc12)NC(=O)[C@H](CC(N)=O)NC(=O)[C@@H](N)Cc1ccc(O)cc1)C(=O)N[C@@H](CCCNC(=N)N)C(=O)N[C@@H](Cc1ccccc1)C(N)=O [Kisspeptin-10]
- pEC50 (KISS1R): 7.75

Compound: CCCCCCCCCCCCCCCC(=O)N[C@@H](CCC(=O)NCCCC[C@H](NC(=O)[C@H](C)NC(=O)[C@H](C)NC(=O)[C@H](CCC(N)=O)NC(=O)CNC(=O)[C@H](CCC(=O)O)NC(=O)[C@H](CC(C)C)NC(=O)[C@H](Cc1ccc(O)cc1)NC(=O)[C@H](CO)NC(=O)[C@H](CO)NC(=O)[C@@H](NC(=O)[C@H](CC(=O)O)NC(=O)[C@H](CO)NC(=O)[C@@H](NC(=O)[C@H](Cc1ccccc1)NC(=O)[C@@H](NC(=O)CNC(=O)[C@H](CCC(=O)O)NC(=O)[C@H](C)NC(=O)[C@@H](N)Cc1cnc[nH]1)[C@@H](C)O)[C@@H](C)O)C(C)C)C(=O)N[C@@H](CCC(=O)O)C(=O)N[C@@H](Cc1ccccc1)C(=O)N[C@H](C(=O)N[C@@H](C)C(=O)N[C@@H](Cc1c[nH]c2ccccc12)C(=O)N[C@@H](CC(C)C)C(=O)N[C@H](C(=O)N[C@@H](CCCNC(=N)N)C(=O)NCC(=O)N[C@@H](CCCNC(=N)N)C(=O)NCC(=O)O)C(C)C)[C@@H](C)CC)C(=O)O [Liraglutide, liraglutide]
- kaolin intake [1]: Kaolin intake was increased

Compound: CC[C@H](C)[C@H](NC(=O)[C@@H]1CCCN1C(=O)[C@@H](NC(=O)[C@@H](N)Cc1ccccc1)C(C)C)C(=O)N[C@@H](Cc1ccccc1)C(=O)N[C@H](C(=O)N[C@@H](Cc1ccc(O)cc1)C(=O)NCC(=O)N[C@@H](CCC(=O)O)C(=O)N[C@@H](CC(C)C)C(=O)N[C@@H](CCC(N)=O)C(=O)N[C@@H](CCCNC(=N)N)C(=O)N[C@@H](CCSC)C(=O)N[C@@H](CCC(N)=O)C(=O)N[C@@H](CCC(=O)O)C(=O)N[C@@H](CCCCN)C(=O)N[C@@H](CCC(=O)O)C(=O)N[C@@H](CCCNC(=N)N)C(=O)N[C@@H](CC(N)=O)C(=O)N[C@@H](CCCCN)C(=O)NCC(=O)N[C@@H](CCC(N)=O)C(=O)O)[C@@H](C)O [Motilin]
- pEC50 (MLNR): 8.80

Compound: CCCCCCCC/C=C\CCCCCCCC(=O)NCCO [Oleoyl Ethanolamide]
- pEC50 (GPR119): 5.74

Compound: CCCCCCCCCCCCCCCCOC[C@H](COP(=O)([O-])OCC[N+](C)(C)C)OC(C)=O [PAF]
- pEC50 (PTAFR): 8.42

Compound: CCCCC[C@H](O)/C=C/[C@H]1C(=O)C[C@H](O)[C@@H]1C/C=C\CCCC(=O)O [PGD2]
- pEC50 (CRTH2): 8.48

Compound: O=c1ccn([C@@H]2O[C@H](COP(=O)(O)OP(=O)(O)O)[C@@H](O)[C@H]2O)c(=O)[nH]1 [UDP]
- pEC50 (P2RY6): 7.88

Compound: O=c1ccn([C@@H]2O[C@H](COP(=O)(O)OP(=O)(O)OP(=O)(O)O)[C@@H](O)[C@H]2O)c(=O)[nH]1 [UTP]
- pEC50 (P2RY2): 6.37
- pEC50 (P2RY4): 6.90

Compound: CCL2: control agonist
- pEC50 (CCR2): 8.58

Compound: CCL3: control agonist
- pEC50 (CCR1): 8.98
- pEC50 (CCR5): 8.12

Compound: CCL13: control agonist
- pEC50 (CCR3): 7.39

Compound: CCL19: control agonist
- pEC50 (CCR7): 8.25

Compound: CCL20: control agonist
- pEC50 (CCR6): 8.53

Compound: Fractalkine: control agonist
- pEC50 (CX3CR1): 9.35

Compound: SFRNGVGTGMKKTSFQRAKS [Neuropeptide S]
- pEC50 (NPSR1B): 7.63

Compound: exendin-4 [Ex-4]
- 24 h body weight change ([2]; HFD-maintained rats): decreased 24 h body weight change relative to controls
- 24 h body weight change ([2]; chow-maintained rats): decreased 24 h body weight change relative to controls
- DBI protein expression in NTS and AP (DBI protein expression): not different between treatments in HFD-maintained rats
